Where a name gives a salt, the structure may show the parent alone.

In the experiment the test system is TNF-stimulated IL8 production by human neutrophils. Nature of the experiment: TNF-stimulated IL-8 production from human neutrophils.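 Also: IL-8 in cell-free supernatant quantified by sandwich ELISA, inhibition calculated against a compound-free control.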 The format is cell-based. The following applies: Neutrophil, TNF 100 ng/ml, about 20 hrs, bounds reflect the top concentration screened, for 202(c) and 120 a range over multiple runs with ends given as 'greater than'.
For `Cc1ccc(C(=O)NCCc2ccccc2)cc1-c1nc(NCCN(C)C(=O)OC(C)(C)C)nc2c1ccc(=O)n2-c1c(F)cccc1F` [202(c), 1,1-dimethylethyl(2-{[8-(2,6-difluorophenyl)-4-(2-methyl-5-{[(2-phenylethyl)amino]carbonyl}phenyl)-7-oxo-7,8-dihydropyrido[2,3-d]pyrimidin-2-yl]amino}ethyl)methylcarbamate], the IC50 is 10 to 100 nM.

Regarding `Cc1ccc(NC(=O)c2cccs2)cc1-c1nc(NCc2ncc[nH]2)nc2c1ccc(=O)n2-c1c(F)cccc1F` [Example 10, N-(3-{8-(2,6-difluorophenyl)-2-[(1H-imidazol-2-ylmethyl)amino]-7-oxo-7,8-dihydropyrido[2,3-d]pyrimidin-4-yl}-4-methylphenyl)-2-thiophenecarboxamide], the concentration for half-maximal inhibition (IC50) was greater than 100 nM.

`CNCCNc1nc(-c2cc(NC(=O)c3cccs3)ccc2C)c2ccc(=O)n(-c3c(F)cccc3F)c2n1` [Example 11, N-[3-(8-(2,6-difluorophenyl)-2-{[2-(methylamino)ethyl]amino}-7-oxo-7,8-dihydropyrido[2,3-d]pyrimidin-4-yl)-4-methylphenyl]-2-thiophenecarboxamide]: the half-inhibitory concentration (IC50) was greater than 100 nM.

For `Cc1ccc(NC(=O)c2ccc(Cl)nc2)cc1-c1nc(N2CCC(N)CC2)nc2c1ccc(=O)n2-c1c(F)cccc1F` [Example 15, N-{3-[2-(4-amino-1-piperidinyl)-8-(2,6-difluorophenyl)-7-oxo-7,8-dihydropyrido[2,3-d]pyrimidin-4-yl]-4-methylphenyl}-6-chloro-3-pyridinecarboxamide], the IC50 is greater than 100 nM.

For `Cc1ccc(NC(=O)c2ccc(Cl)nc2)cc1-c1nc(NC2CC(C)(C)NC(C)(C)C2)nc2c1ccc(=O)n2-c1c(F)cccc1F` [Example 16, 6-chloro-N-(3-{8-(2,6-difluorophenyl)-7-oxo-2-[(2,2,6,6-tetramethyl-4-piperidinyl)amino]-7,8-dihydropyrido[2,3-d]pyrimidin-4-yl}-4-methylphenyl]-3-pyridinecarboxamide], the IC50 is greater than 100 nM.

Compound `Cc1ccc(NC(=O)c2ccc(Cl)nc2)cc1-c1nc(NCc2ncc[nH]2)nc2c1ccc(=O)n2-c1c(F)cccc1F` [Example 17, 6-chloro-N-(3-{8-(2,6-difluorophenyl)-2-[(1H-imidazol-2-ylmethyl)amino]-7-oxo-7,8-dihydropyrido[2,3-d]pyrimidin-4-yl}-4-methylphenyl)-3-pyridinecarboxamide] displayed an IC50 greater than 100 nM.

`Cc1ccc(NC(=O)c2cn(C)cn2)cc1-c1nc(NC(CO)CO)nc2c1ccc(=O)n2-c1c(F)cccc1F` [Example 51, N-[3-(2,6-difluorophenyl)-2-{[2-hydroxy-1-(hydroxymethyl)ethyl]amino}-7-oxo-7,8-dihydropyrido[2,3-d]pyrimidin-4-yl)-4-methylphenyl]-1-methyl-1H-imidazole-4-carboxamide trifluoroacetate] yielded a half-inhibitory concentration (IC50) greater than 100 nM.

On to `Cc1ccc(NC(=O)CCNC(=O)CCC(=O)O)cc1-c1nc(NC(CO)CO)nc2c1ccc(=O)n2-c1c(F)cccc1F` [Example 52, 4-[(3-{[3-(8-(2,6-difluorophenyl)-2-{[2-hydroxy-1-(hydroxymethyl)ethyl]amino}-7-oxo-7,8-dihydropyrido[2,3-d]pyrimidin-4-yl)-4-methylphenyl]amino}-3-oxopropyl)amino]-4-oxobutanoic acid trifluoroacetate], for which the IC50 is greater than 100 nM.

Compound `Cc1ccc(NC(=O)c2cc[nH]n2)cc1-c1nc(NC(CO)CO)nc2c1ccc(=O)n2-c1c(F)cccc1F` [Example 53, N-[3-8-(2,6-difluorophenyl-2-{[2-hydroxy-1-(hydroxymethyl)ethyl]amino}-7-oxo-7,8-dihydropyrido[2,3-d]pyrimidin-4-yl)-4-methylphenyl]-1H-pyrazole-3-carboxamide trifluoroacetate] had a 50% inhibitory concentration (IC50) greater than 100 nM.

Consider `Cc1ccc(N)cc1-c1nc(NC2CC(C)(C)NC(C)(C)C2)nc2c1ccc(=O)n2-c1c(F)cccc1F` [Example 110, 4-(5-amino-2-methylphenyl)-8-(2,6-difluorophenyl)-2-[(2,2,6,6-tetramethyl-4-piperidinyl)amino]pyrido[2,3-d]pyrimidin-7(8H)-one], for which the 50% inhibitory concentration (IC50) was greater than 100 nM.

Source of the values: patent US20100144755A1 (Glaxo Group Limited, priority 2006, published 2010).
